# In patent US20250368627A1, “PYRAZOLESULFONAMIDES AS ANTITUMOR AGENTS” (Peloton Therapeutics, Inc., a fully owned subsidiary of …, priority 2019, published 2025):
# Legend:
# [1] = tested on: HCT116 human colorectal carcinoma cells; assay: CellTiter-Glo Luminescent Cell Viability Assay; type: cell-based; settings: HCT-116, 72 h, 3 days
# Procedure, shortened: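 CellTiter-Glo luminescence gave viability after 3 days of compound exposure in HCT116 cells grown in DMEM/10% FBS. Final concentrations ran from 5 to 0.0002 […] in 1:3 steps, each in triplicate, with IC50 derived from the curves.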
# [2] = target: T1, DDB1DB/DCAF15 and RBM39 R1R2 complex (Homo sapiens, UniProt Q14498+Q66K64); assay: DCAF15 RBM39 Complex Formation Assay (FRET); type: binding; settings: FRET ratio Em 665/Em 615, incubated overnight at 4° C.
# T1 construct: Amino acids 150 to 331 of RBM39 were cloned into pGEX4T3; GST (from vector pGEX4T3); TEV cleavage site (N); made in house; host or cells: DDB1DB/His-DCAF15: baculovirus/Sf9 co-expression; RBM39 R1R2: E. coli (pGEX4T3)
# Procedure, shortened: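 Ternary complex formation read by TR-FRET (Em 665/615, excitation 340 nm) after overnight incubation at 4° C of 20 nM baculovirus DDB1DB/His-DCAF15 and 50 nM E. coli RBM39 RRM1-RRM2 FLAG fragment with 14-point, 3-fold compound dilutions from 1 μM; EC50 from 4-parameter fit.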
# T1 sequence (Q66K64 whole entry, the tested form may be a part): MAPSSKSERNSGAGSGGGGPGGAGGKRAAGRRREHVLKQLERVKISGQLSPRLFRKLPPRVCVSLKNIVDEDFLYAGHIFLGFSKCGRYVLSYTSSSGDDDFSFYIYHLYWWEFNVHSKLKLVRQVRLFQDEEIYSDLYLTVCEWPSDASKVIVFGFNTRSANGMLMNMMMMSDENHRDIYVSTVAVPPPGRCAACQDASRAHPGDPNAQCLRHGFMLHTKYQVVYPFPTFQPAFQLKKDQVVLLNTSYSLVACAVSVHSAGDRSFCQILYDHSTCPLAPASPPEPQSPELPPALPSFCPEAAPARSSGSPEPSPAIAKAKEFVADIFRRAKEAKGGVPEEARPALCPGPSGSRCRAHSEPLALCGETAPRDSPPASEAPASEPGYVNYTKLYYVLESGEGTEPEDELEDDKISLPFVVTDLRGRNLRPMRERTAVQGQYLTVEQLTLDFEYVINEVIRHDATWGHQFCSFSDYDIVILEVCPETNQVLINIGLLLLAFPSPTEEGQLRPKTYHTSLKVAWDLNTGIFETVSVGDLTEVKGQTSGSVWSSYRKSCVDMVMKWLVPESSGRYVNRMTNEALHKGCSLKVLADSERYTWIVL
# T1 sequence (Q14498 150-331): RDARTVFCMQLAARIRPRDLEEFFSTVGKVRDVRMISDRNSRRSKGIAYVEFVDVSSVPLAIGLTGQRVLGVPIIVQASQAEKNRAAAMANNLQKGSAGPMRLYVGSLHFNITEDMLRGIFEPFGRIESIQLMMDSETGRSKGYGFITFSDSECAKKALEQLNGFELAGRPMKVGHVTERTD
# T1 sequence (Q16531 with tags, fused parts or gaps DEL396-708 partner): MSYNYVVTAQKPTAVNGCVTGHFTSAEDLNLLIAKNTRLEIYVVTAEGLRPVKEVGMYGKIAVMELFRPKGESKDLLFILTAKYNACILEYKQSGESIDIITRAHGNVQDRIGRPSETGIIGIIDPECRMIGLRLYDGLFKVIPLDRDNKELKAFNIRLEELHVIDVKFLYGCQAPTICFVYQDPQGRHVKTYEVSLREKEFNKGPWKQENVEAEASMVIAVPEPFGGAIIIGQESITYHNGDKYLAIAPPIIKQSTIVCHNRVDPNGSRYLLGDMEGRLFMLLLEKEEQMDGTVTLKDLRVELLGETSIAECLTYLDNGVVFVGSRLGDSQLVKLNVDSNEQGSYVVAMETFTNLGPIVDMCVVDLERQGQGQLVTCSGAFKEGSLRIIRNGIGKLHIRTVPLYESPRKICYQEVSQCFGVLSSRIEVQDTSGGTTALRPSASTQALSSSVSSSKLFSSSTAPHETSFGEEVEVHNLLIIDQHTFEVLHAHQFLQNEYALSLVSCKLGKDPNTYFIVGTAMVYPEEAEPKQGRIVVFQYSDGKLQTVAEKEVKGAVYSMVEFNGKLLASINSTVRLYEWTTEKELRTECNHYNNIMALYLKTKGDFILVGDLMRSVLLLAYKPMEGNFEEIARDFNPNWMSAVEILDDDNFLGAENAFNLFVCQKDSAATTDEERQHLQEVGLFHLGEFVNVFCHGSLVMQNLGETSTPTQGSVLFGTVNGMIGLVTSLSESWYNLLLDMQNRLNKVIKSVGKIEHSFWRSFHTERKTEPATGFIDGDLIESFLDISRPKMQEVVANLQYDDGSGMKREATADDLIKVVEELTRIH
smiles,measurement,setting,value
"Cn1ncc(S(=O)(=O)Nc2ccc(Cl)c3c(C#N)c[nH]c23)c1F [Compound 122, N-(4-chloro-3-cyano-1H-indol-7-yl)-5-fluoro-1-methyl-pyrazole-4-sulfonamide]",EC50,[1],< 0.25 µM
same,IC50,[2],< 0.25 µM
"Cc1ccc(NS(=O)(=O)c2cnn(C(C)(F)CO)c2)c2[nH]cc(C#N)c12 (stereo not shown) [Compound 293, N-(3-cyano-4-methyl-1H-indol-7-yl)-1-(1-fluoro-2-hydroxy-1-methyl-ethyl)pyrazole-4-sulfonamide]",EC50,[1],0.25 to 1 µM
same,IC50,[2],< 0.25 µM
N#Cc1c[nH]c2c(NS(=O)(=O)c3cnn(C(F)F)c3N)cccc12 [Compound 292],EC50,[1],< 0.25 µM
same,IC50,[2],< 0.25 µM
"[2H]C([2H])([2H])n1cc(S(=O)(=O)Nc2ccc(Cl)c3c(C#N)c[nH]c23)cn1 [Compound 135, N-(4-chloro-3-cyano-1H-indol-7-yl)-1-(trideuteriomethyl)pyrazole-4-sulfonamide]",EC50,[1],< 0.25 µM
same,IC50,[2],< 0.25 µM
"O=S(=O)(Nc1cccc2c(Cl)c[nH]c12)c1cnn(-c2ccc(F)cn2)c1 [Compound 21, N-(3-chloro-1H-indol-7-yl)-1-(5-fluoro-2-pyridyl)pyrazole-4-sulfonamide]",EC50,[1],> 1 µM
same,IC50,[2],0.25 to 1 µM
"C[C@H](CO)n1ncc(S(=O)(=O)Nc2ccc(Cl)c3c(C#N)c[nH]c23)c1N [Compound 306, 5-amino-N-(4-chloro-3-cyano-1H-indol-7-yl)-1-[(1R)-2-hydroxy-1-methyl-ethyl]pyrazole-4-sulfonamide]",EC50,[1],0.25 to 1 µM
same,IC50,[2],< 0.25 µM
"Cc1ccc(NS(=O)(=O)c2cnn(C(C)(C)CC(C)(C)O)c2)c2[nH]cc(C#N)c12 [Compound 231, N-(3-cyano-4-methyl-1H-indol-7-yl)-1-(3-hydroxy-1,1,3-trimethyl-butyl)pyrazole-4-sulfonamide]",EC50,[1],< 0.25 µM
same,IC50,[2],< 0.25 µM
"C[C@@H](O)[C@H](C)n1cc(S(=O)(=O)Nc2ccc(Cl)c3c(C#N)c[nH]c23)cn1 [Compound 232, N-(4-chloro-3-cyano-1H-indol-7-yl)-1-[(1S,2R)-2-hydroxy-1-methyl-propyl]pyrazole-4-sulfonamide]",EC50,[1],0.25 to 1 µM
same,IC50,[2],< 0.25 µM
"N#Cc1c[nH]c2c(NS(=O)(=O)c3cnn([C@@H](CO)CF)c3)ccc(Cl)c12 [Compound 238, N-(4-chloro-3-cyano-1H-indol-7-yl)-1-[(1S)-1-(fluoromethyl)-2-hydroxy-ethyl]pyrazole-4-sulfonamide]",EC50,[1],0.25 to 1 µM
same,IC50,[2],< 0.25 µM
"C[C@@H](O)Cn1cc(S(=O)(=O)Nc2ccc(Cl)c3c(C#N)c[nH]c23)cn1 [Compound 197, N-(4-chloro-3-cyano-1H-indol-7-yl)-1-[(2R)-2-hydroxypropyl]pyrazole-4-sulfonamide]",EC50,[1],0.25 to 1 µM
same,IC50,[2],< 0.25 µM
"O=S(=O)(Nc1cccc2c(Cl)c[nH]c12)c1cnn(CC2CC(F)(F)C2)c1 [Compound 53, N-(3-chloro-1H-indol-7-yl)-1-[(3,3-difluorocyclobutyl)methyl]pyrazole-4-sulfonamide]",EC50,[1],> 1 µM
same,IC50,[2],< 0.25 µM
"CC(C)(CO)n1cc(S(=O)(=O)Nc2ccc(Cl)c3c(Cl)c[nH]c23)cn1 [Compound 170, N-(3,4-dichloro-1H-indol-7-yl)-1-(2-hydroxy-1,1-dimethyl-ethyl)pyrazole-4-sulfonamide]",EC50,[1],0.25 to 1 µM
same,IC50,[2],< 0.25 µM
"N#Cc1c[nH]c2c(NS(=O)(=O)c3cnn(CC(F)(F)F)c3)ccc(Cl)c12 [Compound 120, N-(4-chloro-3-cyano-1H-indol-7-yl)-1-(2,2,2-trifluoroethyl)pyrazole-4-sulfonamide]",EC50,[1],< 0.25 µM
same,IC50,[2],< 0.25 µM
"Cc1ccc(NS(=O)(=O)c2cnn(C(F)F)c2)c2[nH]cc(C#N)c12 [Compound 11, N-(3-cyano-4-methyl-1H-indol-7-yl)-1-(difluoromethyl)pyrazole-4-sulfonamide]",EC50,[1],0.25 to 1 µM
same,IC50,[2],< 0.25 µM
"Cc1ccc(NS(=O)(=O)c2cnn([C@H](C)CO)c2)c2[nH]cc(C#N)c12 [Compound 207, (R)—N-(3-cyano-4-methyl-1H-indol-7-yl)-1-(1-hydroxypropan-2-yl)-1H-pyrazole-4-sulfonamide]",EC50,[1],< 0.25 µM
same,IC50,[2],< 0.25 µM
"Cc1ccc(NS(=O)(=O)c2cnn(CCC#N)c2)c2[nH]cc(C#N)c12 [Compound 77, 1-(2-Cyanoethyl)-N-(3-cyano-4-methyl-1H-indol-7-yl)pyrazole-4-sulfonamide]",EC50,[1],< 0.25 µM
same,IC50,[2],< 0.25 µM
"O=S(=O)(Nc1cccc2c(Cl)c[nH]c12)c1cnn(CCCF)c1 [Compound 57, N-(3-chloro-1H-indol-7-yl)-1-(3-fluoropropyl)pyrazole-4-sulfonamide]",EC50,[1],> 1 µM
same,IC50,[2],< 0.25 µM
"Cc1ccc(NS(=O)(=O)c2cnn(C3CCC3)c2)c2[nH]cc(C#N)c12 [Compound 61, N-(3-cyano-4-methyl-1H-indol-7-yl)-1-cyclobutyl-pyrazole-4-sulfonamide]",EC50,[1],0.25 to 1 µM
same,IC50,[2],< 0.25 µM
"CC1(Cn2cc(S(=O)(=O)Nc3cccc4c(Cl)c[nH]c34)cn2)COC1 [Compound 28, N-(3-chloro-1H-indol-7-yl)-1-[(3-methyloxetan-3-yl)methyl]pyrazole-4-sulfonamide]",EC50,[1],0.25 to 1 µM
same,IC50,[2],< 0.25 µM
"C[C@H]([C@@H](C)O)n1cc(S(=O)(=O)Nc2ccc(Cl)c3c(C#N)c[nH]c23)cn1 [Compound 286, N-(4-chloro-3-cyano-1H-indol-7-yl)-1-[(1R,2R)-2-hydroxy-1-methyl-propyl]pyrazole-4-sulfonamide]",EC50,[1],0.25 to 1 µM
same,IC50,[2],< 0.25 µM
"Cn1ncc(S(=O)(=O)Nc2ccc(Cl)c3c(C#N)c[nH]c23)c1Cl [Compound 156, 5-chloro-N-(4-chloro-3-cyano-1H-indol-7-yl)-1-methyl-pyrazole-4-sulfonamide]",EC50,[1],0.25 to 1 µM
same,IC50,[2],< 0.25 µM
"Cc1ccc(NS(=O)(=O)c2cnn(S(=O)(=O)c3ccccc3)c2)c2[nH]cc(C#N)c12 [Compound 101, 1-(benzenesulfonyl)-N-(3-cyano-4-methyl-1H-indol-7-yl)pyrazole-4-sulfonamide]",EC50,[1],0.25 to 1 µM
same,IC50,[2],< 0.25 µM
"Cc1ccc(NS(=O)(=O)c2cnn(C3CC4(COC4)C3)c2)c2[nH]cc(C#N)c12 [Compound 85, N-(3-cyano-4-methyl-1H-indol-7-yl)-1-(2-oxaspiro[3.3]heptan-6-yl)pyrazole-4-sulfonamide]",EC50,[1],0.25 to 1 µM
same,IC50,[2],< 0.25 µM
"O=S(=O)(Nc1ccc(Cl)c2c(Cl)c[nH]c12)c1cnn(CCO)c1 [Compound 163, N-(3,4-dichloro-1H-indol-7-yl)-1-(2-hydroxyethyl)pyrazole-4-sulfonamide]",EC50,[1],< 0.25 µM
same,IC50,[2],< 0.25 µM
"CCCn1cc(S(=O)(=O)Nc2ccc(C)c3c(C#N)c[nH]c23)cn1 [Compound 90, N-(3-cyano-4-methyl-1H-indol-7-yl)-1-propyl-pyrazole-4-sulfonamide]",EC50,[1],< 0.25 µM
same,IC50,[2],< 0.25 µM
"N#Cc1c[nH]c2c(NS(=O)(=O)c3cnn(C4COC4)c3)ccc(Cl)c12 [Compound 125, N-(4-chloro-3-cyano-1H-indol-7-yl)-1-(oxetan-3-yl)pyrazole-4-sulfonamide]",EC50,[1],0.25 to 1 µM
same,IC50,[2],< 0.25 µM
"CC(C)(O)Cn1cc(S(=O)(=O)Nc2ccc(F)c3c(C#N)c[nH]c23)c(F)n1 [Compound 206, N-(3-cyano-4-fluoro-1H-indol-7-yl)-3-fluoro-1-(2-hydroxy-2-methyl-propyl)pyrazole-4-sulfonamide]",EC50,[1],> 1 µM
same,IC50,[2],< 0.25 µM
"CC(CC(C)(C)O)n1cc(S(=O)(=O)Nc2ccc(Cl)c3c(C#N)c[nH]c23)cn1 (stereo not shown) [Compound 243, N-(4-chloro-3-cyano-1H-indol-7-yl)-1-(3-hydroxy-1,3-dimethyl-butyl)pyrazole-4-sulfonamide]",EC50,[1],0.25 to 1 µM
same,IC50,[2],< 0.25 µM
"Cc1ccc(NS(=O)(=O)c2cnn(C(C)(C)CO)c2)c2[nH]cc(C#N)c12 [Compound 198, N-(3-cyano-4-methyl-1H-indol-7-yl)-1-(2-hydroxy-1,1-dimethyl-ethyl)pyrazole-4-sulfonamide]",EC50,[1],< 0.25 µM
same,IC50,[2],< 0.25 µM
"CC(C)(O)Cn1cc(S(=O)(=O)Nc2ccc(Cl)c3c(Cl)c[nH]c23)cn1 [Compound 177, N-(3,4-dichloro-1H-indol-7-yl)-1-(2-hydroxy-2-methyl-propyl)pyrazole-4-sulfonamide]",EC50,[1],0.25 to 1 µM
same,IC50,[2],< 0.25 µM
"Cc1ccc(NS(=O)(=O)c2cnn([C@H]3C[C@@H](O)C3)c2)c2[nH]cc(C#N)c12 [Compound 193, N-(3-cyano-4-methyl-1H-indol-7-yl)-1-(3-hydroxycyclobutyl)pyrazole-4-sulfonamide]",EC50,[1],0.25 to 1 µM
same,IC50,[2],< 0.25 µM
"N#Cc1c[nH]c2c(NS(=O)(=O)c3cnn(CC4(C#N)CC4)c3)ccc(Cl)c12 [Compound 183, N-(4-chloro-3-cyano-1H-indol-7-yl)-1-[(1-cyanocyclopropyl)methyl]pyrazole-4-sulfonamide]",EC50,[1],0.25 to 1 µM
same,IC50,[2],< 0.25 µM
"CCn1cc(S(=O)(=O)Nc2ccc(F)c3c(C#N)c[nH]c23)c(N)n1 [Compound 291, 3-amino-N-(3-cyano-4-fluoro-1H-indol-7-yl)-1-ethyl-pyrazole-4-sulfonamide]",EC50,[1],0.25 to 1 µM
same,IC50,[2],< 0.25 µM
"N#Cc1c[nH]c2c(NS(=O)(=O)c3cnn(CF)c3N)cccc12 [Compound 312, 5-amino-N-(3-cyano-1H-indol-7-yl)-1-(fluoromethyl)pyrazole-4-sulfonamide]",EC50,[1],> 1 µM
same,IC50,[2],< 0.25 µM
"Cn1cc(S(=O)(=O)Nc2cccc3c(Cl)c[nH]c23)cn1 [Compound 1, N-(3-chloro-1H-indol-7-yl)-1-methyl-1H-pyrazole-4-sulfonamide]",EC50,[1],0.25 to 1 µM
same,IC50,[2],< 0.25 µM
